One series concerns male Sprague-Dawley rats. The series is described as follows: Catalepsy (vertical grid) in rats. The series is classed as in vivo, rat. The conditions noted are these: Compound 13 5-100 mg/kg P.O., haloperidol 0.1, 0.3, or 1 mg/kg S.C., 45 minutes post-dose. Here is the method: Catalepsy is used as a model for detecting extrapyramidal side effects of antipsychotic drugs. […] The rats were removed from home cages 45 minutes later and placed on a vertical stainless steel grid, and the latency to move both forepaws from their starting position was measured for a maximum of 30 seconds. The test was repeated three times consecutively.
Catalepsy is expressed as the average latency to move both forepaws over the three trials. Latency increased in the rats administered haloperidol (see FIG. 27B), but was unchanged in rats administered Compound 13 (see FIG. 27A).

A further series has as its system male C57/BL6 mice. The experiment in a line: Mouse basal locomotor activity. The following applies: po. The series is classed as in vivo. As for the experimental part:
To measure basal locomotor activity, male C57/BL6 mice (8-16 weeks) (Jackson Laboratories, Sacramento, Calif.) were transferred in home cages to the testing room approximately 60 minutes prior to testing. Approximately 15 minutes after arrival in the testing room, a dark cycle commenced, with lights turning off and infrared lights turning on for experimenter visibility. Thirty minutes after the lights were turned off, animals were individually weighed and administered either vehicle (20% hydroxypropyl-β-cyclodextrin) Compound 13 (1, 2, 5, 10, or 20 mg/kg P.O.), or another GPR52 agonist (10 mg/kg P.O.) and returned to home cages. Fifteen minutes later, mice were placed into locomotor cages and activity was recorded for 60 minutes.

Another series deals with male 129Sv/Ev mice. The experiment in a line: Prepulse inhibition of the startle response in mice. The conditions noted are these: mice with relatively low PPI; Compound 13 10 mg/kg P.O.; FIG. 25A. The series is classed as in vivo, mouse. As for the experimental part: Prepulse inhibition testing was conducted in enclosed startle chambers (Kinder Scientific StartleMonitor System, Kinder Scientific, Poway, Calif.) in which animals were placed into restrainers secured onto startle-sensing plates. A constant background white noise of 65 dB was audible in the chambers throughout testing. […]
For each animal, mean startle amplitude for each trial type during the 35-trial block was calculated, and percent prepulse inhibition (% PPI) for each prepulse intensity was calculated as the percent decrease in the mean startle amplitude in response to a given prepulse and 120 dB startle stimulus relative to the mean startle amplitude in response to the 120 dB startle stimulus alone. The % PPI was then calculated for each animal as the mean % PPI across all four prepulse intensities. […]

Broadly, the inhibition is how much of the control response was suppressed. As a reminder, the ED50 is the midpoint of the dose-response relation. On to `O=C(NCCO)c1cccc2c1CCN2c1cc(Cc2cccc(C(F)(F)F)c2)ccn1` [Compound 13, N-(2-Hydroxyethyl)-1-(4-(3-(trifluoromethyl)benzyl)pyridin-2-yl)indoline-4-carboxamide], for which the “catalepsy: average latency to move both forepaws” value with male Sprague-Dawley rats is “unchanged”. The same compound came in with an inhibition at 10 mg/kg in the series on male C57/BL6 mice (10 mg/kg P.O.) of 70%. Besides, in the series with male C57/BL6 mice (1 h, P.O., activity recorded for 60 minutes, read-out: ED50 (% Inhibition in Mouse Basal Locomotor Activity)), the ED50 came to 2.7 mg/kg. For the same compound, the “basal % PPI in 'poor performers'” value in the series on male 129Sv/Ev mice is reported as “increased”.

For the origin of these results see patent publication US9676758B2, “1-heteroaryl-indoline-4-carboxamides as modulators of GPR52 useful for the treatment or prevention of disorders related thereto” (Arena Pharmaceuticals, Inc., priority 2015, dated 2017).
